For data set [1], the target named is T1, α4β7 (Homo sapiens, UniProt P13612+P26010).
T1 construct: endogenous in cells; host or cells: JY cells
T1 sequence (P13612 34-1032): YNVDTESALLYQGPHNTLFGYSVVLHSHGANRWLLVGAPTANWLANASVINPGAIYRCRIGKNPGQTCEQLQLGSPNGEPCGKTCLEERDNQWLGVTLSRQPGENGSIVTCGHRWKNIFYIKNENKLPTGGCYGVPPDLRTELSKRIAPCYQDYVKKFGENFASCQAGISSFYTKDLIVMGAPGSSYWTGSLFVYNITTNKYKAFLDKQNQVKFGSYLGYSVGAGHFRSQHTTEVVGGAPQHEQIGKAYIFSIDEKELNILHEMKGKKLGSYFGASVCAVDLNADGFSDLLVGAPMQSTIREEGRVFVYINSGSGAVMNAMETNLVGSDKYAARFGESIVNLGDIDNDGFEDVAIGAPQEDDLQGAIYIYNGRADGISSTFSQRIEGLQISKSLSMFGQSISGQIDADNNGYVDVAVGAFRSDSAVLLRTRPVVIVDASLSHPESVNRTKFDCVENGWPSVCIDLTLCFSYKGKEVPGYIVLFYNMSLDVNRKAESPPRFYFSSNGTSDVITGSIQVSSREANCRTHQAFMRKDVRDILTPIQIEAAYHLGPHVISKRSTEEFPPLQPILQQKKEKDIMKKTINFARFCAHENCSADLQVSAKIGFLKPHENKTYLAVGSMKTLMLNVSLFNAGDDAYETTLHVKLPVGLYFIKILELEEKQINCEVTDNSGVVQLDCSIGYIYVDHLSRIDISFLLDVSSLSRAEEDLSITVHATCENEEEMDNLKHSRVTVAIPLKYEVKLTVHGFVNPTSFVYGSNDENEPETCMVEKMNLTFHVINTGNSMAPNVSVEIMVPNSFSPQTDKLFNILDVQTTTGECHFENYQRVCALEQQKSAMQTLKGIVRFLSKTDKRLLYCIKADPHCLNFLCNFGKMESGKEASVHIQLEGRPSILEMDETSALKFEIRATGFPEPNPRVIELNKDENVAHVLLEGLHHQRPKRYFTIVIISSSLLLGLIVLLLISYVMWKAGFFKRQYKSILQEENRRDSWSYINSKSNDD
T1 sequence (P26010 20-798): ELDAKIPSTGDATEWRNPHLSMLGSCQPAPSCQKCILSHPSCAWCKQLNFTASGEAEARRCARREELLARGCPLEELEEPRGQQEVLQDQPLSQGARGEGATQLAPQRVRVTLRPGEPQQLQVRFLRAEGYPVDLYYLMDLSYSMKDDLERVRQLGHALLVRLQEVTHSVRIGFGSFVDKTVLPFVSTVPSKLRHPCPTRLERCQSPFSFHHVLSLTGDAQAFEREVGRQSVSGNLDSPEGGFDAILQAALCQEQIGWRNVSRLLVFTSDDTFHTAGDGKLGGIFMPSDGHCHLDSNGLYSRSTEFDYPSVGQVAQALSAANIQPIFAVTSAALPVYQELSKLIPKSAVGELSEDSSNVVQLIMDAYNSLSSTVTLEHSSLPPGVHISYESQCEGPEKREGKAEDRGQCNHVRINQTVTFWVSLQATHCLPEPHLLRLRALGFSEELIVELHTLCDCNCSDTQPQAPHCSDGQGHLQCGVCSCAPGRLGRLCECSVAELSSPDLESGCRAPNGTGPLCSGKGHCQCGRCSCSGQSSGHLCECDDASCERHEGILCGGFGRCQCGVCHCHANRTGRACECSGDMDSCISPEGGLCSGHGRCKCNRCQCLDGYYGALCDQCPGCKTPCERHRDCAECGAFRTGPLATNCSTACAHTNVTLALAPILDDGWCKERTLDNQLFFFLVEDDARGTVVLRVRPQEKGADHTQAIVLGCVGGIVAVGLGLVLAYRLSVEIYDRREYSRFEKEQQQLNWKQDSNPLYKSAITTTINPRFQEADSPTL
Nature of the data set: VCAM-Ig Direct Binding Assay on JY cells (α4β7). Here is the method:
In order to assess the VLA-4 inhibitory specificity of the compounds of this invention, assays for other major groups of integrins, i.e., β2and β3, as well as other β1 integrins, such as VLA-5, VLA-6 and α4β7 are performed. These assays may be similar to the adhesion inhibition and direct binding assays described above, substituting the appropriate integrin-expressing cell and corresponding ligand. For example, polymorphonuclear cells (PMNs) express β2 integrins on their surface and bind to ICAM. β3 integrins are involved in platelet aggregation and inhibition may be measured in a standard platelet aggregation assay. VLA-5 binds specifically to Arg-Gly-Asp sequences, while VLA-6 binds to laminin. α4β7 is a recently discovered homologue of VLA-4, which also binds fibronectin and VCAM. Specificity with respect to α4β7 is determined in a binding assay that utilizes the above-described VCAM-IgG-enzyme marker conjugate and a cell line that expresses α4β7, but not VLA-4, such as RPMI-8866 or JY cells.
Binding to α4β7 was assessed on JY cells in the presence of Mn^+2. In the binding assay, VCAM-Ig and oMePUPA-V compete for binding to α4β7 on JY cells (See section 4.1.1 for assay protocol). In the cell adhesion assay, oMePUPA-V was tested for its ability to block JY (α4β7) cell binding to CS1/BSA conjugate

The nature of data set [2]: Bulk / drug substance stability (HPLC). In kind it is physicochemical. On the procedure:
At four weeks, one or two degradation peaks became detectable at 40° C. and 50° C., but the level of each impurity peak was still less than 0.02%.

The inhibition is how much of the control response was suppressed. Broadly, the IC50 is the point on the concentration scale where inhibition reaches its midpoint. As for `Cc1ccccc1NC(=O)Nc1ccc(CC(=O)N2CCC[C@H]2C(=O)N[C@H](C)CC(=O)O)cc1` [oMePUPA-V], the “measurable activity against α4β7” value in data set [1] was greater than 100 µM. Moreover, the inhibition at 100 µM in data set [1] (@ 100 μM, Mn+2, read-out: inhibition, JY (α4β7) VCAM-Ig DBA) worked out at 3%. For the same molecule, in data set [1] (JY cells, Mn+2), the “blocking of α4β7 binding to VCAM-Ig (in words)” value is “does not block”. Also, in data set [1] (read-out: IC50 against α4β7-VCAM-Ig binding), the IC50 was greater than 100 µM. In addition, in data set [2], the “Bulk stability (40° C., 75% RH), time stable” value was “stable >4 wk”.
